Test results published in PubChem BioAssay AID276 (DTP/NCI, 2004).
Values joined by “and” are separate entries in the source; they are usually repeats but may differ in a detail not shown here. Equal values may be shown once. Inconclusive results and toxic doses are left out. Rule for the calls: active = survival T/C of 150% or more; inactive = T/C below 125% in these data.

Tested on: B6C3F1 mice, Lewis lung carcinoma iv, survival T/C
Experiment: NCI In Vivo Anticancer Drug Screen. Data for tumor model Lewis Lung Carcinoma (intravenous) in B6C3F1 mice
Conditions: endpoint: median survival time, schedule: Q01DX009 (ip), higher = longer survival
Method in brief: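 Read-out is survival, expressed as the treated-group measurement over the vehicle control-group measurement. Animals bore a transplantable tumor and were given compound.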

[1] = dose: 12.5 mg/kg/injection, vehicle: saline with Tween-80
[2] = dose: 25.0 mg/kg/injection, vehicle: saline with Tween-80
[3] = dose: 50.0 mg/kg/injection, vehicle: saline with Tween-80
[4] = dose: 100.0 mg/kg/injection, vehicle: saline with Tween-80
[5] = dose: 200.0 mg/kg/injection, vehicle: saline with Tween-80
[6] = dose: 12.5 mg/kg/injection, vehicle: Klucel (hydroxypropylcellulose) (HPC)
[7] = dose: 25.0 mg/kg/injection, vehicle: Klucel (hydroxypropylcellulose) (HPC)
[8] = dose: 50.0 mg/kg/injection, vehicle: Klucel (hydroxypropylcellulose) (HPC)
[9] = dose: 100.0 mg/kg/injection, vehicle: Klucel (hydroxypropylcellulose) (HPC)
[10] = dose: 200.0 mg/kg/injection, vehicle: Klucel (hydroxypropylcellulose) (HPC)
[11] = dose: 400.0 mg/kg/injection, vehicle: Klucel (hydroxypropylcellulose) (HPC)
[12] = dose: 6.25 mg/kg/injection, vehicle: Klucel (hydroxypropylcellulose) (HPC)
[13] = dose: 3.12 mg/kg/injection, vehicle: saline with Tween-80
[14] = dose: 6.25 mg/kg/injection, vehicle: saline with Tween-80
[15] = dose: 100.0 mg/kg/injection, vehicle: saline
[16] = dose: 200.0 mg/kg/injection, vehicle: saline
[17] = dose: 12.5 mg/kg/injection, vehicle: saline
[18] = dose: 25.0 mg/kg/injection, vehicle: saline
[19] = dose: 50.0 mg/kg/injection, vehicle: saline
[20] = dose: 400.0 mg/kg/injection, vehicle: saline
[21] = dose: 800.0 mg/kg/injection, vehicle: saline
[22] = dose: 400.0 mg/kg/injection, vehicle: saline with Tween-80

Measured: T/C

N=c1ccc2nc3ccc(N)cc3sc-2c1
inactive: dose: 6.25 mg/kg/injection, vehicle: water 113 % of control | dose: 12.5 mg/kg/injection, vehicle: water 117 % of control | dose: 25.0 mg/kg/injection, vehicle: water 93 % of control

c1ccc2sc(SSN3CC4CCC(CC4)C3)nc2c1
inactive: [1] 100 % of control | [2] 93 % of control | [3] 90 % of control | [4] 91 % of control | [5] 106 % of control

O=C1c2ccccc2C(=O)c2c(NCCNCCO)ccc(O)c21
inactive: dose: 2.5 mg/kg/injection, vehicle: saline 104 % of control | dose: 5.0 mg/kg/injection, vehicle: saline 116 % of control | dose: 10.0 mg/kg/injection, vehicle: saline 96 % of control | dose: 20.0 mg/kg/injection, vehicle: saline 104 % of control | dose: 40.0 mg/kg/injection, vehicle: saline 117 % of control | dose: 80.0 mg/kg/injection, vehicle: saline 117 % of control

CN(Cc1cnc2nc(N)nc(N)c2n1)c1ccc(C(=O)N[C@@H](CCC(=O)O)C(=O)O)cc1
inactive: dose: 1.0 mg/kg/injection, vehicle: sodium bicarbonate 102 % of control | dose: 2.0 mg/kg/injection, vehicle: sodium bicarbonate 107 % of control and 88 % of control | dose: 4.0 mg/kg/injection, vehicle: sodium bicarbonate 96 % of control and 102 % of control

CC1CCC(n2cnc3c(Cl)ncnc32)O1 (stereo unspecified)
inactive: [6] 91 % of control | [7] 107 % of control | [8] 107 % of control | [9] 108 % of control | [10] 113 % of control | [11] 108 % of control

C(C#CCN1CCOCC1)#CCN1CCOCC1
inactive: [12] 108 % of control | [6] 101 % of control | [7] 102 % of control | [8] 100 % of control | [9] 102 % of control | [11] 106 % of control

Cc1c(-c2ccc(C3CCCCC3)cc2)nc2ccc(F)cc2c1C(=O)O
inactive: [7] 96 % of control | [8] 110 % of control | [9] 118 % of control | [10] 112 % of control

C[C@]12CCC(=O)C=C1CC[C@@H]1[C@@H]2[C@@H](O)C[C@@]2(C)[C@H]1CC[C@]2(O)C(=O)CO
inactive: [6] 110 % of control | [7] 107 % of control | [8] 97 % of control | [9] 106 % of control | [10] 100 % of control

NC(=O)c1ccc(N)nc1
inactive: dose: 0.5 mg/kg/injection, vehicle: saline 115 % of control | dose: 1.0 mg/kg/injection, vehicle: saline 115 % of control

CC1=CC(=Nc2ccc(N(CCCl)CCCl)cc2)C=C(C)C1=O
inactive: [1] 109 % of control | [2] 116 % of control

COc1ccc2c(c1)CCn1c(C)c(COC(=O)NC(C)C)c(COC(=O)NC(C)C)c1-2
inactive: dose: 3.12 mg/kg/injection, vehicle: distilled water + Tween-80 102 % of control | dose: 6.25 mg/kg/injection, vehicle: distilled water + Tween-80 99 % of control | dose: 12.5 mg/kg/injection, vehicle: distilled water + Tween-80 87 % of control

C=C1N(C)c2ccccc2C1(C)C
inactive: [13] 107 % of control | [14] 102 % of control | [1] 109 % of control | [2] 98 % of control | [3] 110 % of control

CNC=O
inactive: [15] 106 % of control | [16] 110 % of control

COC(=O)C(N)Cc1ccc(O)c(O)c1 (stereo unspecified)
inactive: [17] 107 % of control | [18] 103 % of control | [19] 101 % of control | [15] 109 % of control | [16] 92 % of control | [20] 95 % of control | [21] 95 % of control

N=C1CCCS1
inactive: [18] 117 % of control | [19] 122 % of control

COC(=O)C12OCC34C(CC5C(C)C6=CC(=O)OC6=CC5(C)C3C(O)C1O)OC(=O)C(OC(C)=O)C24 (stereo unspecified)
inactive: dose: 2.0 mg/kg/injection, vehicle: saline + alcohol 102 % of control | dose: 4.0 mg/kg/injection, vehicle: saline + alcohol 97 % of control | dose: 8.0 mg/kg/injection, vehicle: saline + alcohol 96 % of control | dose: 16.0 mg/kg/injection, vehicle: saline + alcohol 98 % of control | dose: 125.0 micrograms/kg/injection, vehicle: saline + alcohol 114 % of control | dose: 250.0 micrograms/kg/injection, vehicle: saline + alcohol 118 % of control | dose: 500.0 micrograms/kg/injection, vehicle: saline + alcohol 109 % of control | dose: 1000.0 micrograms/kg/injection, vehicle: saline + alcohol 106 % of control | dose: 2000.0 micrograms/kg/injection, vehicle: saline + alcohol 112 % of control

ClC1=C(Cl)C(Cl)=C(Cl)C1=Cc1ccccc1
inactive: [13] 94 % of control and 101 % of control | [14] 98 % of control and 108 % of control | [1] 98 % of control | [2] 97 % of control | [3] 105 % of control

CO[C@@]12[C@@H]3N[C@@H]3CN1C1=C(C(=O)C(NCC3CCCO3)=C(C)C1=O)[C@@H]2COC(N)=O (stereo partly specified)
inactive: dose: 1.5 mg/kg/injection, vehicle: distilled water + Tween-80 104 % of control | dose: 3.0 mg/kg/injection, vehicle: distilled water + Tween-80 104 % of control | dose: 6.0 mg/kg/injection, vehicle: distilled water + Tween-80 116 % of control

CC(=O)NCCCCCCNC(C)=O
inactive: [18] 92 % of control and 96 % of control | [19] 90 % of control and 92 % of control | [15] 88 % of control and 106 % of control | [16] 100 % of control and 102 % of control | [20] 96 % of control and 103 % of control | [21] 102 % of control and 105 % of control

Cc1ccc2c(ccc(/C=C/c3ccc(O)c4ncccc34)[n+]2C)c1
inactive: [17] 100 % of control | [18] 86 % of control

O=C1SC(c2ccccc2)=S=C1c1ccccc1
inactive: [2] 100 % of control | [3] 93 % of control | [4] 95 % of control | [5] 104 % of control | [22] 108 % of control

C[n+]1cccc(NC(=O)c2ccc(NC(=O)C34CCC(C(=O)Nc5ccc(C(=O)Nc6ccc[n+](C)c6)cc5)(CC3)CC4)cc2)c1
inactive: dose: 5.0 mg/kg/injection, vehicle: saline with Tween-80 106 % of control | dose: 10.0 mg/kg/injection, vehicle: saline with Tween-80 122 % of control

[Cl][Co]([Cl])[Cl].[NH-]CC[N-]CC[NH-]
inactive: [18] 103 % of control | [19] 96 % of control | [15] 93 % of control

C1OCN2CSCC12 (stereo unspecified)
inactive: [1] 103 % of control | [2] 103 % of control | [3] 102 % of control | [4] 98 % of control | [5] 96 % of control | [22] 89 % of control

CCN(C)N=Nc1ccc(C(N)=O)cc1
inactive: [12] 95 % of control | [6] 104 % of control | [7] 111 % of control | [8] 122 % of control
